Test results: article PMC5537347, “A short D-enantiomeric antimicrobial peptide with potent immunomodulatory and antibiofilm activity against multidrug-resistant Pseudomonas aeruginosa and Acinetobacter baumannii” (Scientific Reports, 2017)
Read-outs that look alike come from different tables or passages of the source.

Tests used:
A. baumannii = assay type: cell-based
Description: (§5) The broth microdilution technique was utilized to assess the MIC of designed peptides according to the guidelines of the Clinical and Laboratory Standards Institute (CLSI)[37].

TNF-α = assay: Anti-inflammatory effect on LPS-stimulated macrophages, ELISA; assay type: cell-based, murine; conditions: J774A.1 cells, LPS 150 ng/mL, six hours
Description: (§1) Figure 3 Ability of peptides to neutralize LPS and reduce inflammatory cytokines expression. (A) LPS binding activity of peptides. Peptides at different concentrations were incubated with one endotoxin unit (EU) of LPS at 37 °C for 30 minutes. […] The binding of peptides with LPS is expressed as percent change relative to the untreated samples. (B) Anti-inflammatory effect of peptides on LPS-stimulated macrophages. J774A.1 cells were stimulated with LPS (150 ng/mL final concentration) in the presence of different concentrations of peptides. Cells stimulated with LPS alone and untreated cells served as controls. Cells were incubated for six hours at 37 °C before the supernatant from each treatment group was collected. Detection of tumor necrosis factor-α (TNF-α) and interleukin-6 (IL-6) in supernatants was determined using ELISA. Cytokine levels are expressed as percent change relative to the LPS-stimulated control. Statistical analysis was calculated using one-way ANOVA, with post hoc Tukey’s multiple comparisons test. P < 0.05 was considered significant. One asterisk (*) indicates significant difference with the negative control.
(§2) To assess the anti-inflammatory effect of our peptides on LPS-stimulated macrophages, J774A.1 cells were seeded and incubated as described above (for toxicity assessment). Next, the cells were stimulated with LPS (150 ng/ml final concentration) in the presence of different concentrations of peptides (RR and D-RR4). Cells stimulated with LPS alone and untreated cells served as controls. Cells were incubated for six hours at 37 °C and the supernatant from each treatment was collected and stored at −20 °C until use. Tumor necrosis factor-α (TNF-α) and interleukin-6 (IL-6) present in the supernatant was quantified using ELISA, as described previously. Cytokine levels were presented as the percent change relative to the LPS-stimulated control, using triplicate samples for each treatment condition.

IL-6 = assay: as above; assay type: cell-based, murine; conditions: J774A.1 cells, LPS 150 ng/mL, six hours
Description: as §1, §2

[1] = test system: A. baumannii ATCC BAA-1605; assay: C. elegans infection model (bacterial burden and survival); assay type: in vivo, Caenorhabditis elegans; conditions: 8 × MIC
Description: (§3) (A) Evaluation of toxicity of peptides in Caenorhabditis elegans. C. elegans strain glp-4;sek 1 was grown for four days in the presence of peptides at different concentrations. Worms were monitored daily and the live worms were counted. Results are expressed as a Kaplan-Meier survival curve. (B) Evaluation of antimicrobial activity of peptides to reduce the bacterial CFU inside infected Caenorhabditis elegans. […] After treatment, worms were lysed and bacteria were counted. […] Results are expressed as means from three biological replicates ± standard deviation. (C) Efficacy of peptides in a Caenorhabditis elegans model of bacterial infection. […] Worms were monitored daily and the live worms were counted. Results are expressed as a Kaplan-Meier survival curve. C. elegans receiving no treatment served as a negative control.
(§4) Infection and treatment of C. elegans was done, as described previously, with the following modifications, [53], [54]. […] After infection, worms were collected and washed with PBS three times. Worms (~30 per sample) were transferred either to microcentrifuge tubes (for survival assessment) or 96-well plates (for bacterial CFU determination). […] Untreated worms served as a negative control. To assess the survival of infected C. elegans, worms were assessed for viability (live worms are sinusoidal with movement, whereas dead worms are rigid rods). In order to assess the bacterial load in worms, worms were first washed three times with PBS. They were subsequently lysed by addition of 200 mg of 1.0-mm silicon carbide particles (Biospec Products, Bartlesville, OK) to each tube and vortexing for one minute. Bacteria were plated onto TSA plates containing 100 µg/ml ampicillin to permit the selective growth of P. aeruginosa and A. baumannii over Escherichia coli OP50.

P. aeruginosa PAO1 = assay: as above; assay type: in vivo, Caenorhabditis elegans; conditions: 8 × MIC
Description: as §3, §4

[2] = test system: colistin-resistant P. aeruginosa 1109; assay: as above; assay type: in vivo, Caenorhabditis elegans
Description: as §3, §4

[3] = test system: P. aeruginosa PAO1 biofilm; assay: Disruption of established biofilms, microtiter dish crystal violet assay; assay type: cell-based; conditions: mature (24 hour) biofilm, 24 hours at 37 °C, crystal violet OD 595 nm
Description: Figure 1 Efficacy of peptides on established biofilms of P. aeruginosa PAO1 and A. baumannii ATCC BAA-1605. […] After incubation, wells were washed and biofilms were stained with 0.5% (w/v) crystal violet for 30 minutes. The dye was solubilized with ethanol (95%) and the optical density (595 nm) of the biofilm mass was measured. Experiments were repeated twice independently and the average values are reported.
To examine the peptides’ ability to disrupt bacterial biofilms, the microtiter dish biofilm formation assay was employed[41]–[43].

P. aeruginosa = assay type: cell-based
Description: as §5

## Colistin [reference compound]
A. baumannii; strain ATCC 19606
  MIC: 0.125 µM
A. baumannii; strain ATCC BAA-747
  MIC: 0.25 µM
A. baumannii; strain ATCC BAA-1605
  MIC: 0.25 µM
A. baumannii; strain NR-9667
  MIC: 0.0625 µM
A. baumannii; strain NR-13374
  MIC: 0.125 µM
A. baumannii; strain NR-13375
  MIC: 0.125 µM
A. baumannii; strain NR-13382
  MIC: 0.5 µM
A. baumannii; strain NR-17777
  MIC: 0.5 µM
A. baumannii; strain NR-17778
  MIC: 0.0625 µM
A. baumannii; strain NR-17780
  MIC: 0.25 µM
A. baumannii; strain NR-17783
  MIC: 0.0625 µM
A. baumannii; strain NR-17784
  MIC: 0.0625 µM
A. baumannii; strain NR-17785
  MIC: 0.25 µM
A. baumannii; strain NR-17786
  MIC: 0.0625 µM
A. baumannii; strain NR-19298
  MIC: 0.25 µM
A. baumannii; strain NR-19299
  MIC: 0.25 µM
TNF-α; 10 µM
  decrease of TNF-α production: > 95%
TNF-α; 20 µM
  decrease of TNF-α production: > 95%
IL-6; 10 µM
  decrease of IL-6 production: > 95%
IL-6; 20 µM
  decrease of IL-6 production: > 95%
[1]
  reduction of bacterial burden (CFU) in infected worms: 96%
[1]; 36 hours
  worms remaining alive: remained alive
[1]; after 72 hours
  worms remaining alive: 80–85%
P. aeruginosa PAO1
  reduction of bacterial burden (CFU) in infected worms: 89%
P. aeruginosa PAO1; 24 and 36 hours
  protection of infected worms (survival): nearly complete protection
[2]; D-RR4 8 × MIC, colistin 1 × MIC, after 24 hours
  protection of infected worms (survival): failed to protect worms from death
[2]; in vivo
  reduction of bacterial burden (CFU) in infected worms: unable to significantly decrease bacterial burden
[3]; 4 × MIC
  biofilm mass disrupted: more than 10%
[3]; 8 × MIC
  biofilm mass disrupted: > 25%
[3]; 16 × MIC
  biofilm mass disrupted: > 28%
[3]; 32 × MIC
  biofilm mass disrupted: > 75%
P. aeruginosa; strain ATCC 9027
  MIC: 0.25 µM
P. aeruginosa; strain ATCC 9721
  MIC: 0.5 µM
P. aeruginosa; strain ATCC 10145
  MIC: 0.5 µM
P. aeruginosa; strain ATCC 15442
  MIC: 0.25 µM
P. aeruginosa; strain ATCC 25619
  MIC: 0.25 µM
P. aeruginosa; strain ATCC 27853
  MIC: 0.25 µM
P. aeruginosa; strain ATCC 35032
  MIC: 0.5 µM
P. aeruginosa; strain ATCC BAA-1744
  MIC: 0.5 µM
P. aeruginosa; strain PAO1
  MIC: 0.5 µM
